The subject of assay [1] is wild-type (WT) HEK293 cells. Briefly: Pink Flamindo cAMP assay control in wild-type HEK293 cells lacking μORs. The assay is classed as cell-based. The note with it: compound 1 μM, AUC analysis, n = 3. Background: cAMP levels reflect the balance of adenylyl cyclase and phosphodiesterase activity.
In a further assay the test system is μOR. The note with it: cited from earlier work.

Regarding `C=C(C)[C@@H]1CCC(C)=C[C@H]1c1c(O)cc(CCCCC)cc1O` [JGC1, (1′R,2′R)-5′-Methyl-4-pentyl-2′-(prop-1-en-2-yl)-1′,2′,3′,4′-tetrahydro-[1,1′-biphenyl]-2,6-diol], the “effect on cAMP accumulation in the absence of the hμOR” value in assay [1] was “do not impact cAMP accumulation”.

In the case of “[D-Ala,[2] N-MePhe,[4] Gly-ol]-enkephalin [DAMGO]”, the EC100 in the assay on μOR was 250 nM.

Source of the values: article PMC11299522 (Journal of medicinal chemistry, 2023).
